Calls of active or inactive are those of the source.
Legend:
Beta-galactosidase = Beta-galactosidase (Escherichia coli, UniProt Q8VNN2); experiment: PubChem AID 485352; type: functional
[1] = molecular target: T1, Type-1 angiotensin II receptor (Homo sapiens, UniProt P30556); experiment: antagonism of angiotensin II type 1 receptor – cell-based, uHTS hits, selectivity assay for APJ receptor antagonist project, dose response (AID 463214); type: functional;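 also: antagonist potency against angiotensin II stimulated AT1 response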
T1 sequence (P30556 whole entry): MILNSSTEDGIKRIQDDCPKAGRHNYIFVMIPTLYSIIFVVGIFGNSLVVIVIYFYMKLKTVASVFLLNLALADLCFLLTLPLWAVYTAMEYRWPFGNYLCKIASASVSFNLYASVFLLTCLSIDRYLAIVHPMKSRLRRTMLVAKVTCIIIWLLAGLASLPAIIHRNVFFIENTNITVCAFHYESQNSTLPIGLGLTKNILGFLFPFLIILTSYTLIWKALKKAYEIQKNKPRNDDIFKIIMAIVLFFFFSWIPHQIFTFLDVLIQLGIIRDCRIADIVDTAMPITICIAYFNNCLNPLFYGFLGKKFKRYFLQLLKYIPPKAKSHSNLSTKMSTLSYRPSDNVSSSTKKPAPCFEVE

[2] = molecular target: Peroxisome proliferator-activated receptor gamma/Nuclear receptor coactivator 3 (Homo sapiens, UniProt P37231); experiment: TR-FRET dose response biochemical High Throughput Screening assay for agonists of the steroid receptor coactivator 3 (SRC-3) recruitment by the peroxisome proliferator-activated receptor gamma (PPAR gamma): non-selective agonists. [Related pubchem assays: 1301 (Confirmation screen.), 1048 (Primary screen.)]; type: functional
[3] = molecular target: Peroxisome proliferator-activated receptor gamma/Nuclear receptor coactivator 2 (Homo sapiens, UniProt P37231); experiment: (§1) TR-FRET dose response biochemical High Throughput Screening assay for agonists of the steroid receptor coactivator 2 (SRC-2) recruitment by the peroxisome proliferator-activated receptor gamma (PPAR gamma): non-selective agonists. [Related pubchem assays: 1297, 1032 ]; type: functional
[4] = molecular target: T2, Short transient receptor potential channel 4 (Mus musculus, UniProt Q9QUQ5); experiment: block of DAMGO-driven TRPC4 calcium entry – cell-based, HEK293 TRPC4/mu-opioid, Fluo-4 calcium, dose response (AID 434942); type: functional;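 also: potency of inhibitors blocking the TRPC4 calcium response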
T2 sequence (Q9QUQ5 whole entry): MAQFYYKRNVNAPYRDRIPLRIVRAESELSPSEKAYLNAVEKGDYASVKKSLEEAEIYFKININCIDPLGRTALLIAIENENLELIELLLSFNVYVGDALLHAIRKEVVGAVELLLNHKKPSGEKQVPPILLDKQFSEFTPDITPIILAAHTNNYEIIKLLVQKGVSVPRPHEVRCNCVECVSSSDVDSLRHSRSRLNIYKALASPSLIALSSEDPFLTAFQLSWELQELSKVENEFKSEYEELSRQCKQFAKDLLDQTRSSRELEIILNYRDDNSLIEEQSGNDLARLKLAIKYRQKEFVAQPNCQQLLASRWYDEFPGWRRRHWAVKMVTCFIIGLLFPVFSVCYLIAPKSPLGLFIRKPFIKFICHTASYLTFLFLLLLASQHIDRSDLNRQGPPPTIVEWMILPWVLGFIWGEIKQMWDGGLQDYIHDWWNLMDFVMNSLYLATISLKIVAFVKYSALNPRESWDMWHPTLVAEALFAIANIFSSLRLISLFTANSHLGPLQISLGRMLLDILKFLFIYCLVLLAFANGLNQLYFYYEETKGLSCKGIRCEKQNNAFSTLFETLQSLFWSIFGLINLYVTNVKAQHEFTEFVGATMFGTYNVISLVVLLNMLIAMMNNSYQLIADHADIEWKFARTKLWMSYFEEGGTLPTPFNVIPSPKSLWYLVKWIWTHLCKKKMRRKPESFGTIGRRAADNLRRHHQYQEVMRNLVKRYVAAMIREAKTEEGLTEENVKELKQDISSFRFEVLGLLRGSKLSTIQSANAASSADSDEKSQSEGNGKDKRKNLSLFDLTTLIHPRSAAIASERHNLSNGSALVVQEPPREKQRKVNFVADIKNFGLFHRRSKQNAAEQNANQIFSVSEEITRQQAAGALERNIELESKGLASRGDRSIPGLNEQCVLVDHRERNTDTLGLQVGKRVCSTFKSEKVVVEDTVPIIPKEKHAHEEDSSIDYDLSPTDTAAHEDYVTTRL

[5] = molecular target: Peroxisome proliferator-activated receptor gamma/Nuclear receptor coactivator 1 (Homo sapiens, UniProt P37231); experiment: as §1, with “1 (SRC-1)” for “2 (SRC-2)”, “assays (depositor defined):AID1300, AID1808, AID504735, AID631]” for “assays: 1297, 1032 ]”; type: protein assay
[6] = molecular target: DNA (cytosine-5)-methyltransferase 1 (Homo sapiens, UniProt P26358); experiment: inhibition of DNA methylation by DNMT1 – biochemical, fluorescent molecular beacon, confirmation (AID 602386); type: functional
Cytochrome P450 2C19 = Cytochrome P450 2C19 (Homo sapiens, UniProt P33261); experiment: Cytochrome panel assay with activity outcomes. Panel member name: p450-cyp2c19 Compounds with AC50 equal or less than 10 uM are considered active; type: functional
[7] = molecular target: T3, Ubiquitin-conjugating enzyme E2 N (Homo sapiens, UniProt P61088); type: functional;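 also: Dose-response confirmation in a TR-FRET assay detecting UBC13-driven polyubiquitin chain formation, inhibition measured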
T3 sequence (P61088 whole entry): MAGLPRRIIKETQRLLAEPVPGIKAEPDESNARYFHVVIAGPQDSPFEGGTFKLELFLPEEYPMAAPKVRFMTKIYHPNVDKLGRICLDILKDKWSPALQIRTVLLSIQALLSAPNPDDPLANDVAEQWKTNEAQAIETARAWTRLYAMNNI

BJ [8] = experiment: BJ-TERT-LT-ST fibroblast viability loss – cell-based, RAS-independent, luminescence, dose response (AID 1935); type: functional; details: Homo sapiens;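 also: BJ fibroblasts immortalized with TERT plus LT and ST oncogenes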
BJ [9] = experiment: BJ-TERT fibroblast viability loss – cell-based, RAS-independent, luminescence, dose response (AID 1933); type: functional; details: Homo sapiens
BJ [10] = experiment: cells; type: functional, cell-based; details: Homo sapiens
[11] = DRD fibroblast viability loss – cell-based, non-viral oncogenic, luminescence, dose response (AID 1934); type: functional; details: Homo sapiens
[12] = molecular target: T4, DNA repair and recombination protein RAD54-like (Homo sapiens, UniProt Q92698); experiment: RAD54 Holliday junction migration blockers – biochemical, fluorescence, cherry-picked samples, dose series, confirmation (AID 651657); type: functional
T4 sequence (Q92698 whole entry): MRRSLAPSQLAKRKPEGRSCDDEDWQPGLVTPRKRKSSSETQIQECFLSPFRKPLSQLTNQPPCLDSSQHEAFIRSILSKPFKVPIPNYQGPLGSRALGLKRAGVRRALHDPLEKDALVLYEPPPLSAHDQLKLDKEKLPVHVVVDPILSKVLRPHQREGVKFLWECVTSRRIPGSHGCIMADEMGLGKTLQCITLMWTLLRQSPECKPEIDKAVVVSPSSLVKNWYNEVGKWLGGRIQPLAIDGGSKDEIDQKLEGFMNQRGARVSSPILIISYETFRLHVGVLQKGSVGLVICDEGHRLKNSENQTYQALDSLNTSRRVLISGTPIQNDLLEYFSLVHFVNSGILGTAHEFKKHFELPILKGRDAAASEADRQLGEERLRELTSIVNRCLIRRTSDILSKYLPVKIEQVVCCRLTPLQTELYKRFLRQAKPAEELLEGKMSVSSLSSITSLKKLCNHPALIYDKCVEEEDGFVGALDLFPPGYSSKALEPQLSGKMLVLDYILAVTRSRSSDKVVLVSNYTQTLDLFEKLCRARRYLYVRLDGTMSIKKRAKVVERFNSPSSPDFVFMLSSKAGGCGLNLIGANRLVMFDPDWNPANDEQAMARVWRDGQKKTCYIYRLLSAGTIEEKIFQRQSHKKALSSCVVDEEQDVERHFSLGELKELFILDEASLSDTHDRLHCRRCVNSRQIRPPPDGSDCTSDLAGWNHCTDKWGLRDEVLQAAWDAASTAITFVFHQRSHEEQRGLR

[13] = molecular target: T5, Microphthalmia-associated transcription factor (Homo sapiens, UniProt O75030); experiment: reducers of TRPM1 reporter luminescence, concentration series – cell-based, SK-MEL-5, cherry-picked, set 3, MITF inhibitor project, dose response (AID 493073); type: functional;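 also: SK-MEL-5 melanoma cells with luciferase driven by the MITF target TRPM1 promoter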
T5 sequence (O75030 whole entry): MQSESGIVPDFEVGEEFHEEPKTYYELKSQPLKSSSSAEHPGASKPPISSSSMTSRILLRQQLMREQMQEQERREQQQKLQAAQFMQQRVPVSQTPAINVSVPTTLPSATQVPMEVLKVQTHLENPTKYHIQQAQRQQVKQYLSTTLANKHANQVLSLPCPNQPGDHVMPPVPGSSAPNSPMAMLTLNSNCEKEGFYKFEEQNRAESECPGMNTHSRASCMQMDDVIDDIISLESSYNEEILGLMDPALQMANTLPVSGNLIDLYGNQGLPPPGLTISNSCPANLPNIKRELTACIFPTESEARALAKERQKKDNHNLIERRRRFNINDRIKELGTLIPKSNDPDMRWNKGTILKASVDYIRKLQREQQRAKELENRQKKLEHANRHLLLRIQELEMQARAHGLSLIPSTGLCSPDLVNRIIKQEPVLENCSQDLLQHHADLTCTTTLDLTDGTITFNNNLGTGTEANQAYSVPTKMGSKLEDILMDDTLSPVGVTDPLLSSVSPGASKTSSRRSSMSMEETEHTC

Streptococcus = experiment: GAS UMAA2166 growth inhibition – luminescence, BacTiterGlo, counter-screen for streptokinase expression inhibitor project, dose response (AID 1915); type: functional, organism-based;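 also: potency for reduction of bacterial viability or growth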
[14] = test system: Streptococcus sp. 'group A'; experiment: Streptococcus pyogenes SK(-)GAS viability under kanamycin – luminescence, BacTiterGlo, confirmation, counter-screen for streptokinase expression inhibitor project, dose response (AID 1900); type: functional, organism-based
INS1 = experiment: INS-1E survival protection against cytokine death – cell-based, luminescence, retest, dose response (AID 449756); type: functional; details: Rattus norvegicus;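 also: cell death triggered by IL-1 beta plus TNF-alpha plus IFN-gamma mixture; protective hits raise ATP signal compared with cytokine alone wells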
[15] = Trypanosoma cruzi growth suppression in host cells – NIH3T3 host cells, beta-gal luminescence, confirmation (AID 2044); type: functional, cell-based;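 also: intracellular parasites grown in NIH/3T3 mouse fibroblasts as host cells; luminescent beta-galactosidase reporter signal from transgenic T. cruzi replicating inside host cells; inhibitors lower the luminescence signal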
[16] = NIH3T3 cell viability loss – ATP luminescence, mouse fibroblasts, counter-screen, dose response (AID 2010); type: functional, cell-based;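 also: cells exposed to compound for about 90 hours before reading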

Chain of Beta-galactosidase (Q8VNN2 whole entry): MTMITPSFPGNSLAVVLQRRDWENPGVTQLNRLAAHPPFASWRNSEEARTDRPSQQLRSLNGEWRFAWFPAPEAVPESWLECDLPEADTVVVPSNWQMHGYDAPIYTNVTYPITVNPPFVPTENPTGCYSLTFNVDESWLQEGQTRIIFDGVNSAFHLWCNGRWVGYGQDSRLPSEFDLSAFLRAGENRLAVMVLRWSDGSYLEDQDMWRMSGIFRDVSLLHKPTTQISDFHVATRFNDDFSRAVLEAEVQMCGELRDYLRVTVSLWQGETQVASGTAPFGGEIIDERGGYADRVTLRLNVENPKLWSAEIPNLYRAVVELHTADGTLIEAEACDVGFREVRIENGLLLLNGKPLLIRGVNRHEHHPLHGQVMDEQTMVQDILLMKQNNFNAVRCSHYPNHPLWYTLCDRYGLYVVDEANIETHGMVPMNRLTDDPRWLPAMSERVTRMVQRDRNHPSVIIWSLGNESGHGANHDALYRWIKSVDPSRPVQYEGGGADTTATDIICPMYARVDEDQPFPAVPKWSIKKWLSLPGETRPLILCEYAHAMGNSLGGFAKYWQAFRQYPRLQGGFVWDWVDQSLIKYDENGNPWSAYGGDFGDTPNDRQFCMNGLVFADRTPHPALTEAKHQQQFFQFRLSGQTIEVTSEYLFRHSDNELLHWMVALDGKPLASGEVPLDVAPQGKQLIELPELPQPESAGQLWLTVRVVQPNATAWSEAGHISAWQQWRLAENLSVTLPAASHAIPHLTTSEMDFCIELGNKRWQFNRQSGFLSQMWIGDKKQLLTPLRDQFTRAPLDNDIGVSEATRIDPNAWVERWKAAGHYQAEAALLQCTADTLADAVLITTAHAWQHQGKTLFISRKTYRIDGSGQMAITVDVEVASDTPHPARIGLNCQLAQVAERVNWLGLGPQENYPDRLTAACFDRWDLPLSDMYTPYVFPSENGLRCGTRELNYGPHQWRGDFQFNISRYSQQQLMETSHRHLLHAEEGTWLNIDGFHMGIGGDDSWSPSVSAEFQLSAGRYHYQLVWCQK
Chain of Peroxisome proliferator-activated receptor gamma/Nuclear receptor coactivator 1 (P37231 whole entry): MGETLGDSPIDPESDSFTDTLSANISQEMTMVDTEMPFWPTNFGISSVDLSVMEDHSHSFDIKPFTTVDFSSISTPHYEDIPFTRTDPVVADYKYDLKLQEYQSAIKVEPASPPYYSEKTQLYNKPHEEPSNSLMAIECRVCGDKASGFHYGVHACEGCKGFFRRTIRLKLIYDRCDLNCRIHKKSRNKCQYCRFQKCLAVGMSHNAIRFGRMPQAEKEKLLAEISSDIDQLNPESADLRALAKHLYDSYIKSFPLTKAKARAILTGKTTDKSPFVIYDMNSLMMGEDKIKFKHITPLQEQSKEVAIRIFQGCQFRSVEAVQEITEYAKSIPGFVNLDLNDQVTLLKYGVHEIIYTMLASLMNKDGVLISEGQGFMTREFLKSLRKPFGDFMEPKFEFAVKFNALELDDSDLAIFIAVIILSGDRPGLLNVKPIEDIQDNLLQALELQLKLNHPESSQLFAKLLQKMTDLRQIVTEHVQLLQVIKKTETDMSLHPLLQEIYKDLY
Chain of Peroxisome proliferator-activated receptor gamma/Nuclear receptor coactivator 1 (Q15788 whole entry, further chain): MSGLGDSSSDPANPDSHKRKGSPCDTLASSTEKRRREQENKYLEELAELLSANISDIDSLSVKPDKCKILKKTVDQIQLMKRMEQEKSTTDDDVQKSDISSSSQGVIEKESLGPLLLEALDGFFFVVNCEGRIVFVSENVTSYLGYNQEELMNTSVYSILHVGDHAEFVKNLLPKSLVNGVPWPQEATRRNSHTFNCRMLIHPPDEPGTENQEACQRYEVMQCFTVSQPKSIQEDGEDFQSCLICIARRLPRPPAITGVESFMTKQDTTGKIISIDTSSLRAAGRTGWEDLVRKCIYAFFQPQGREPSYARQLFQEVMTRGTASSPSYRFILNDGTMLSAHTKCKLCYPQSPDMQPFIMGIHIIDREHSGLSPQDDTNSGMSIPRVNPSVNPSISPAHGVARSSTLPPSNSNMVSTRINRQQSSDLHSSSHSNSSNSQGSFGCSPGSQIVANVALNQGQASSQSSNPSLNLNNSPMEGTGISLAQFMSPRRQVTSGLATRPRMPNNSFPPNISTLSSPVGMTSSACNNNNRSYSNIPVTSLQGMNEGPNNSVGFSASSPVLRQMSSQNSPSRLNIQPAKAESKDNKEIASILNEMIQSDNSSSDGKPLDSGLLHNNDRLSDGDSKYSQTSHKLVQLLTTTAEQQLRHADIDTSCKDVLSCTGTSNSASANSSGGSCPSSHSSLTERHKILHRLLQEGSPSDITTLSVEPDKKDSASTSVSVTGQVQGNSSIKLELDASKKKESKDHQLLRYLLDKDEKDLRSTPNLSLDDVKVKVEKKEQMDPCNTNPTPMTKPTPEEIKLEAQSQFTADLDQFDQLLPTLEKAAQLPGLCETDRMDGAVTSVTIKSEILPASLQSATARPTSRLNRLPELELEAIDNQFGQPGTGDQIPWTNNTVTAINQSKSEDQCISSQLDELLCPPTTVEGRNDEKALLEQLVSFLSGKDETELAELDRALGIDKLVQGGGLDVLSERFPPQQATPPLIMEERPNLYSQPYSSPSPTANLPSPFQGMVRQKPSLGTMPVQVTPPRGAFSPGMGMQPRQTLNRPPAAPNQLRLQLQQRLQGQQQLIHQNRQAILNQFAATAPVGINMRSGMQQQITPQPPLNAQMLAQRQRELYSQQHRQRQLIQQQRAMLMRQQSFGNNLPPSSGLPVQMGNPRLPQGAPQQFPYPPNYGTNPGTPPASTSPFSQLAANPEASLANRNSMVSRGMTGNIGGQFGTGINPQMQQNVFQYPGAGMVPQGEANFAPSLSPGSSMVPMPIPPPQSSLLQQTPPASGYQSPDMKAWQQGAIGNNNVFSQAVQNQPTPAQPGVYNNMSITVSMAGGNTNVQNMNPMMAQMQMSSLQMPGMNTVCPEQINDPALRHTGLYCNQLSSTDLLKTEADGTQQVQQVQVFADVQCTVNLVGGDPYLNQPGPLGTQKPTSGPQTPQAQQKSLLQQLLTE
Chain of Peroxisome proliferator-activated receptor gamma/Nuclear receptor coactivator 3 (P37231 whole entry): as the sequence (P37231 whole entry) above
Chain of Peroxisome proliferator-activated receptor gamma/Nuclear receptor coactivator 3 (Q9Y6Q9 whole entry, further chain): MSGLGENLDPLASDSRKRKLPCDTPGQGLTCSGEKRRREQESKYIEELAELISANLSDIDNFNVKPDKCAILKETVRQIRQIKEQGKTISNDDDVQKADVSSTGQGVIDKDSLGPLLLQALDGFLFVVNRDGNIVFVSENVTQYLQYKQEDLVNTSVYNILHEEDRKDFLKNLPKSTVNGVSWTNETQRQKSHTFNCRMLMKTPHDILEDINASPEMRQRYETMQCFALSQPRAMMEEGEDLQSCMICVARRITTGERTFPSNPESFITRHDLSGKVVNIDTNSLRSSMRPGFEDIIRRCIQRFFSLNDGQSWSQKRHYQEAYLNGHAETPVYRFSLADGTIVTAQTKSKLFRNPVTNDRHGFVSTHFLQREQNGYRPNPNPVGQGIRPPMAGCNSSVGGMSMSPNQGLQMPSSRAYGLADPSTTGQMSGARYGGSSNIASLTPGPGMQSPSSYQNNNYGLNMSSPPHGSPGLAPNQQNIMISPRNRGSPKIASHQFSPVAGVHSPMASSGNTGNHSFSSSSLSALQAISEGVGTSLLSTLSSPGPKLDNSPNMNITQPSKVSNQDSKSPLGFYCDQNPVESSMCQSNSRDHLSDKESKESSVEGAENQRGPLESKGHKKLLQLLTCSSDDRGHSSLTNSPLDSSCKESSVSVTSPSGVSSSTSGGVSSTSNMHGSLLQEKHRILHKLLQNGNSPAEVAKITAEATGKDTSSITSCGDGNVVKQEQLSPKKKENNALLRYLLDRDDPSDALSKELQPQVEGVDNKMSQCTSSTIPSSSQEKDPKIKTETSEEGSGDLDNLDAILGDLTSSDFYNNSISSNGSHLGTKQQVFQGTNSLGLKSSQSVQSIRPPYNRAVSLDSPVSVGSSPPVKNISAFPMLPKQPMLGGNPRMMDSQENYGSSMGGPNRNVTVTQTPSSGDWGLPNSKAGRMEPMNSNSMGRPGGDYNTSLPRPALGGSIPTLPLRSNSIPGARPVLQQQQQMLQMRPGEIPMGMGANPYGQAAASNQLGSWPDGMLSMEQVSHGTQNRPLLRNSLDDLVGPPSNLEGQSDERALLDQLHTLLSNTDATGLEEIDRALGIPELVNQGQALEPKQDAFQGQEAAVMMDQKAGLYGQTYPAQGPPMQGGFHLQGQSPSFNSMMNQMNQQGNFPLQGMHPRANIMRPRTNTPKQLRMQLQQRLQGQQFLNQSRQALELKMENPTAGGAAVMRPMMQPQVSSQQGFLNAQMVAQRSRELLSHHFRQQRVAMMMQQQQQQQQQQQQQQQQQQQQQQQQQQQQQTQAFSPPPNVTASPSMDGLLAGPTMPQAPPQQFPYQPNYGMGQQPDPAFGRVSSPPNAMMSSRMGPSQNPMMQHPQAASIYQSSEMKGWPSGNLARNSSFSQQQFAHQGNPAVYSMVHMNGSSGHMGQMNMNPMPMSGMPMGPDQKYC

What does the source list for Cc1ccc(NCC(=O)c2ccccc2)cc1Cl?
EC50 (Beta-galactosidase): > 40 µM (inactive); IC50 [1]: 5.7 µM (active)

Which EC50 [2] does the source give for OCC1(CCc2ccccc2)CCN(Cc2ccc3nsnc3c2)CC1 here?
The EC50 was > 79.4 µM (not active).

And the EC50 [3]?
The EC50 was 29.1 µM (not active).

And the EC50 [4]?
Its EC50 is 8.41 µM (active).

What about the EC50 [5] of the same molecule?
Its EC50 is 42.2 µM (inactive).

Which IC50 [6] does the source give for O=C(c1ccc(=O)oc1)N1CCOCC1 here?
Its IC50 is 3.67 µM (active).

What does the source list for Cn1c(=O)cc(SCC(=O)N2CCCC2)c2ccccc21?
EC50 [2]: > 79.4 µM (not active); EC50 [3]: > 79.4 µM (not active); EC50 [5]: > 79.4 µM (inactive)

What does the source list for CCc1cc2c(=O)n(-c3ccccc3)c(=S)[nH]c2s1?
EC50 [2]: > 79.4 µM (not active); EC50 [3]: > 79.4 µM (not active); AC50 (Cytochrome P450 2C19): inconclusive; IC50 [7]: > 20 µM (inactive); EC50 [5]: > 79.4 µM (inactive)

For Cc1ccc2c(c1)C(=O)C(=O)N2c1ccc(Cl)cc1, which EC50 (Beta-galactosidase) is on record?
The EC50 was > 40 µM (inactive).

What about the IC50 [1] of the same molecule?
Its IC50 is 33.2 µM (not active).

For COc1ccc(CC(=O)Nc2ccc(-c3nc4cc(C)ccc4o3)c(O)c2)cc1OC, which EC50 [2] is on record?
Its EC50 is > 79.4 µM (not active).

What about the EC50 [3] of the same molecule?
The EC50 was 24 µM (not active).

What about the EC50 [5] of the same molecule?
Its EC50 is 27.8 µM (inactive).

For Cc1cc[n+](CC(=O)c2cccc([N+](=O)[O-])c2)c2ccccc12, which IC50 [6] is on record?
The IC50 was > 99 µM (inactive).

What about the EC50 (BJ [8]) of the same molecule?
The EC50 was > 150 µM (inconclusive).

And the EC50 (BJ [9])?
Its EC50 is 25.1 µM (active).

And the EC50 (BJ [10])?
Its EC50 is > 150 µM (not active).

And the EC50 [11]?
The EC50 was > 150 µM (not active).

With CN1CCC(N(C)c2nc(-c3ccccc3)nc3ccccc23)CC1 as the molecule, how does the AC50 [12] read?
Its AC50 is 18.1 µM (active).

Which AC50 [12] does the source give for CCCN1CCN(CCCNC(=O)c2cc3c(=O)n(C)c4ccccc4c3n2C)CC1 here?
The AC50 was 34.7 µM (active).

With C/C(=N\NC(=O)COc1ccccc1-c1ccccc1)c1ccccn1 as the molecule, how does the AC50 [13] read?
Its AC50 is 4.58 µM (active).

What about the EC50 (Streptococcus) of the same molecule?
The EC50 was 4.08 µM (active).

And the EC50 (Beta-galactosidase)?
The EC50 was > 40 µM (inactive).

And the IC50 [1]?
Its IC50 is 3.73 µM (active).

What about the EC50 [14] of the same molecule?
The EC50 was 1.05 µM (active).

What about the AC50 (INS1) of the same molecule?
Its AC50 is 1.32 µM (active).

For S=C(N/N=C/c1ccc(Cl)cc1)N1CCOCC1, which EC50 (Beta-galactosidase) is on record?
Its EC50 is > 40 µM (inactive).

And the IC50 [1]?
Its IC50 is 7.99 µM (active).

For COc1ccc2nc(C)cc(Nc3ccc(N4CCOCC4)cc3)c2c1, which AC50 [12] is on record?
Its AC50 is 17.4 µM (active).

What about the EC50 [15] of the same molecule?
The EC50 was 1.79 µM (active).

What about the EC50 [16] of the same molecule?
Its EC50 is 27 µM (active).

Reference: ChEMBL document CHEMBL1201862, “PubChem BioAssay data set” (2004)
